The structures appear in SMILES notation.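 Following 48 hours of exposure in 96-well plates, responses at five concentrations were used to interpolate endpoints linearly. GI50 = concentration required for 50% inhibition of growth. TGI is the concentration that stops growth completely.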

This is an account of results in PubChem BioAssay (NCI).

Test systems include MALME-3M melanoma; HOP-92 NSCLC; SR leukemia; SK-MEL-5 melanoma; OVCAR-5 ovarian; 786-0 renal; MOLT-4 leukemia; SNB-75 CNS; UACC-62 melanoma; HCT-15 colon; DU-145 prostate.
What all share (experiment): DTP human tumour cell line panel, 48 h

For orientation: TGI means the concentration at which net growth stops. Regarding `C=CC(=O)NCNC(=O)C=C`, the TGI with MALME-3M melanoma, in the assay with HOP-92 NSCLC, in the assay on SR leukemia, in the assay on SK-MEL-5 melanoma, in the assay on OVCAR-5 ovarian and with 786-0 renal was over 100 µM each time. For the same molecule, the TGI in the assay on MOLT-4 leukemia, with SNB-75 CNS, in the assay with UACC-62 melanoma and in the assay on HCT-15 colon was over 100 µM each time.

As a reminder, the GI50 is the concentration giving 50% growth inhibition. `COc1cc(/C=C/C(=O)c2ccc(F)cc2)ccc1OCCCCCOc1cc2c(cc1OC)C(=O)N1CCCC1C=N2` (stereo unspecified): the GI50 with MALME-3M melanoma was 0.212 µM; in the assay on DU-145 prostate it was 0.0249 µM; in the assay with HOP-92 NSCLC, 0.158 µM; in the assay with SR leukemia, under 0.01 µM; with SK-MEL-5 melanoma, 0.0896 µM; in the assay on MOLT-4 leukemia, under 0.01 µM. In addition, the GI50 in the assay on SNB-75 CNS is 0.034 µM; with UACC-62 melanoma it was 0.0582 µM; with HCT-15 colon, 0.0588 µM. Moreover, the TGI with MALME-3M melanoma is 0.439 µM; in the assay on DU-145 prostate, 0.0579 µM; with HOP-92 NSCLC, 0.575 µM; in the assay with SR leukemia it was under 0.0113 µM; in the assay on SK-MEL-5 melanoma, 0.23 µM; with MOLT-4 leukemia, 0.0418 µM. The figures for the TGI in the assay with SNB-75 CNS, with UACC-62 melanoma and with HCT-15 colon were 0.187 µM, 0.222 µM and 1.41 µM, respectively.

`Cc1cc(C)c(NC(=O)/C=C/c2ccccc2)c(C)c1`: the TGI was over 100 µM with HOP-92 NSCLC; over 100 µM in the assay on SR leukemia; over 100 µM in the assay with OVCAR-5 ovarian; over 100 µM in the assay on MOLT-4 leukemia; over 100 µM in the assay with SNB-75 CNS; 93.8 µM with UACC-62 melanoma. Also, in the assay on HCT-15 colon, the TGI was over 100 µM.

Regarding `OCC1OC(n2cnc3c(SCc4ccccc4)ncnc32)C(O)C1O` (stereo unspecified), the TGI with MALME-3M melanoma was over 100 µM; with DU-145 prostate, over 100 µM; in the assay on HOP-92 NSCLC it was over 79.9 µM; with SR leukemia, over 100 µM; in the assay on SK-MEL-5 melanoma, over 100 µM; in the assay on OVCAR-5 ovarian, over 100 µM. Besides, the TGI with 786-0 renal was over 100 µM; in the assay with MOLT-4 leukemia, over 39.8 µM; with SNB-75 CNS it was over 100 µM; in the assay on UACC-62 melanoma, over 100 µM; in the assay on HCT-15 colon it was over 100 µM.

Consider `CC(C)OC(=O)NNc1cccc(Cl)c1`, for which the TGI with MALME-3M melanoma, with DU-145 prostate, in the assay on HOP-92 NSCLC, in the assay with SR leukemia, with SK-MEL-5 melanoma and in the assay on OVCAR-5 ovarian was over 100 µM in each case. In addition, the TGI in the assay with 786-0 renal, with MOLT-4 leukemia, with SNB-75 CNS, with UACC-62 melanoma and in the assay with HCT-15 colon was over 100 µM each time.

As for `Oc1c(Cl)c(Cl)c(O)c(CCNc2nccs2)c1Cl`, the TGI in the assay on MALME-3M melanoma is 54.9 µM; in the assay with DU-145 prostate it was 19.8 µM; with HOP-92 NSCLC it was over 100 µM; with SR leukemia, 25.6 µM; in the assay on SK-MEL-5 melanoma, 8.71 µM; in the assay on OVCAR-5 ovarian it was 39 µM. The TGI in the assay on 786-0 renal turned out to be 33.5 µM; in the assay on MOLT-4 leukemia it was 94.3 µM; in the assay with SNB-75 CNS it was 42.3 µM; in the assay with UACC-62 melanoma it was 40.5 µM; with HCT-15 colon, 31 µM.

As to `Cc1cccc(N=C/C=C(\Cl)c2ccc3ccccc3c2)c1`, the TGI is 36.4 µM in the assay with MALME-3M melanoma; 36.9 µM in the assay on DU-145 prostate; over 62.3 µM in the assay with HOP-92 NSCLC; 8.24 µM in the assay on SR leukemia; 37.1 µM with SK-MEL-5 melanoma; over 65.6 µM in the assay on OVCAR-5 ovarian. Besides, the TGI is 34.9 µM in the assay with 786-0 renal; 8.19 µM in the assay with MOLT-4 leukemia; over 58.2 µM in the assay on SNB-75 CNS; 32.5 µM with UACC-62 melanoma; 28.2 µM with HCT-15 colon.

In the case of `CN1CCN(c2ccc3[nH]c(C4=C(O)C(=O)[C@@H]5C(=C4O)N=C(CO)N5C)nc3n2)CC1`, the TGI in the assay with MALME-3M melanoma, in the assay on DU-145 prostate, in the assay on HOP-92 NSCLC, in the assay with OVCAR-5 ovarian, in the assay on 786-0 renal and in the assay on MOLT-4 leukemia was over 100 µM in each case. The TGI in the assay with SNB-75 CNS, with UACC-62 melanoma and in the assay on HCT-15 colon was over 100 µM throughout.

With `CC(=O)N=c1ccc2nc(N)nn(O)c-2c1`, the TGI in the assay with DU-145 prostate, in the assay on SR leukemia, in the assay on SK-MEL-5 melanoma, with OVCAR-5 ovarian, with 786-0 renal and in the assay with MOLT-4 leukemia was over 100 µM in each case. In addition, the TGI in the assay with SNB-75 CNS, in the assay on UACC-62 melanoma and with HCT-15 colon was over 100 µM throughout.

For the molecule `CCCCCCCCCC/C=C/C=O`, the TGI with MALME-3M melanoma, with HOP-92 NSCLC, in the assay with SR leukemia, in the assay with SK-MEL-5 melanoma, in the assay with OVCAR-5 ovarian and in the assay on MOLT-4 leukemia was over 100 µM in each case. Moreover, the TGI in the assay on SNB-75 CNS, with UACC-62 melanoma and in the assay with HCT-15 colon was over 100 µM in each case.

For the molecule `C/C(=N\O)C1CC2C=C(C#N)C1N(Cc1ccccc1)C2` (stereo unspecified), the TGI with MALME-3M melanoma, in the assay with DU-145 prostate, with HOP-92 NSCLC, in the assay on SR leukemia, in the assay with SK-MEL-5 melanoma and in the assay with OVCAR-5 ovarian was over 100 µM in each case. In addition, the TGI in the assay on 786-0 renal, in the assay with MOLT-4 leukemia, in the assay on SNB-75 CNS, in the assay with UACC-62 melanoma and in the assay on HCT-15 colon was over 100 µM each time.

For `O=C(c1ccccc1)C(Nc1ccc2ccccc2c1)c1ccccc1` (stereo unspecified), the TGI in the assay with MALME-3M melanoma was over 94.8 µM; in the assay on DU-145 prostate, over 100 µM; with HOP-92 NSCLC, over 100 µM; with SR leukemia it was over 71.8 µM; in the assay with SK-MEL-5 melanoma it was 36 µM; in the assay on OVCAR-5 ovarian, over 100 µM. Further, the TGI is over 100 µM in the assay on 786-0 renal; over 75.6 µM with MOLT-4 leukemia; over 71.9 µM in the assay with SNB-75 CNS; over 100 µM in the assay with UACC-62 melanoma; over 100 µM in the assay on HCT-15 colon.

With `COc1cc2cc3c4cc(OC)c(OC)cc4cc[n+]3c(C)c2cc1OC`, the TGI in the assay with MALME-3M melanoma was over 100 µM; with DU-145 prostate, over 100 µM; in the assay with HOP-92 NSCLC it was over 100 µM; with SK-MEL-5 melanoma, over 100 µM; with OVCAR-5 ovarian, over 100 µM; with 786-0 renal it was 37.9 µM. Also, the TGI in the assay on MOLT-4 leukemia was over 100 µM; in the assay on SNB-75 CNS it was 45.7 µM; in the assay on UACC-62 melanoma it was 98.6 µM; in the assay with HCT-15 colon, over 100 µM.

Turning to `COCC12CCC(OC)C34C5CC6(O)C(OC)C=C(C5C6OC(=O)c5ccccc5)C(C(OC)C13)C4N(C)C2` (stereo unspecified), the TGI in the assay with MALME-3M melanoma, with DU-145 prostate, in the assay on HOP-92 NSCLC, in the assay on SR leukemia, with SK-MEL-5 melanoma and in the assay on OVCAR-5 ovarian was over 100 µM in each case. The TGI with 786-0 renal, in the assay with SNB-75 CNS, with UACC-62 melanoma and in the assay on HCT-15 colon was over 100 µM throughout.

For the molecule `CCP(=O)(CC)C(Cl)(Cl)C(O)C(Cl)(Cl)Cl` (stereo unspecified), the TGI with DU-145 prostate, in the assay on HOP-92 NSCLC, in the assay with SR leukemia, in the assay on SK-MEL-5 melanoma, with OVCAR-5 ovarian and in the assay on MOLT-4 leukemia was over 100 µM throughout. For the same molecule, the TGI with SNB-75 CNS and with HCT-15 colon was over 100 µM each time.

For `[N-]=[N+]=CC(=O)OCC1NC(=O)C(COC(=O)C=[N+]=[N-])NC1=O` (stereo unspecified), the TGI in the assay with MALME-3M melanoma, in the assay on DU-145 prostate, with HOP-92 NSCLC, in the assay with SR leukemia, in the assay on OVCAR-5 ovarian and with 786-0 renal was over 100 µM throughout. In addition, the TGI with MOLT-4 leukemia, with SNB-75 CNS, in the assay on UACC-62 melanoma and with HCT-15 colon was over 100 µM throughout.
